Measurements taken from patent US20200087258A1, “INHIBITOR OF CITRATE TRANSPORTER AND THEIR USE IN THERAPY” (Eternygen GmbH, priority 2017, published 2020).

biological target: INDY (Homo sapiens, UniProt Q86YT5); assay: 14C-citrate uptake in HEK293 cells overexpressing recombinant human INDY (NaCT); assay type: cell-based; parameters: expressed in transfected cells; host or cells: HEK293
Description: The compound was obtained by screening of a library containing more than 50,000 lead-like compounds and fragments. The library was tested using a functional citrate uptake assay with HEK293 cells overexpressing recombinant human INDY. The following hit confirmation was conducted in the same assay system. To confirm the activity of selected compounds on the target INDY another cell assay was conducted. In this assay system citrate uptake was measured using HepG2 cells which endogenously express INDY. Furthermore selectivity of selected compounds was tested for two other transporters in different assay systems. The first transporter was the glutamate transporter GLT-1 tested in a glutamate uptake assays using HEK293 cells overexpressing recombinant human GLT-1. The second transporter was the glucose transporter GLUT1 tested in a glucose uptake assay using Huh-7 cells which endogenously express GLUT1. Compounds were considered to be selective with an at least 5-fold higher activity for INDY than for the other two transporters.
Cells were maintained in cell medium using cell culture grade flasks (CellSTACK Corning, 500 cm2 dishes or T175 depending on cell number). The selection antibiotic and G418 (800 μg/ml) was added during cultivation but not for seeding into assay plates. For splitting, cells were washed with PBS (w/o Ca2+, Mg2+, phenol red) and detached with Trypsin/EDTA. Throughout cultivation cells were kept sub-confluent. Detached cells (50,000 cells/well) were seeded in 96-well plates (white, clear bottom from Corning #655098) and incubated over night before usage in the assay. The following media were used. For HEK293 cells expressing INDY MEM (PAA)+10% FCS+1×P/S+2 mM L-Gln; for HEK293 cells expressing GLT-1 DMEM (Gibco)+10% FCS+400 µg/ml G418; for Huh7 cells DMEM (Gibco)+10% FCS+2 mM L-Gin (+1×P/S); for HepG2 cells MEM (PAA, Cat # E15-024)+10% FCS+2 mM L-Gin+1×NEAA+1 mM Na-Pyruvat
The following assay buffers for the particular uptake reaction were used. Citrate uptake buffer: 120 mM NaCl, 5.4 mM KCl, 0.8 mM MgSO4, 5 mM glucose, 1.8 mM CaCl2, 25 mM Hepes, 25 mM MES, pH 6.5. Glutamate uptake buffer: HBSS, 1 mM CaCl2, 1 mM MgCl2, 20 mM Hepes pH 7.4. Glucose uptake buffer: 25 mM Hepes+25 mM MES pH 7.4, 120 mM NaCl, 5.4 mM KCl, 1.8 mM CaCl2, 0.8 mM MgSO4.
INDY mediated citrate uptake was determined in HEK293 cells. To determine the uptake of ^14C labelled citrate into cells, HEK293 cells over-expressing human NaCT were used. Cloning of human NaCT was done in analogy as described in Birkenfeld et al. (Birkenfeld et al., 2011, Cell Metabolism 14, 184-195, 2011).
Human NaCT HEK293 cells were seeded into white clear-bottom 96-well plates (50,000/well) in the presence of 4 μg/ml Poly-D-Lysine and incubated at 37° C. for 16-24 hours. On the days of the assay the plates were washed once with assay buffer using automated washing/LS 405 Selectors, BioTek ending with a buffer volume of 40 μl. Then 5 μl of compound solution in assay buffer was added and incubated for 5-30 min at 37° C. in cell incubator, HERA cell Heraeus. Afterwards 10 μl of substrate 14C-citrate ([…]/[…] per well) were added and incubated for another 20-90 min at 37° C. in cell incubator, HERAcell. Then plates were washed twice with 200 μl ice-cold assay buffer and residual volume was discarded. For cell lysis 50 μl ice-cold NaOH (100 mM) was added and incubated for 15 minutes at RT on a plate shaker. Finally, 200 μl scintillation fluid (scintillator OptiPhase Supermix, Perkin Elmer) was added. After 15 min incubation at RT without shaking, plates were measured using a TopCount reader system (Perkin Elmer). As a positive control 10 mM citrate was applied. It is possible to use this assay also in analogy in a 384-well plate format.

INDY, sequence (Q86YT5 whole entry, the tested form may be a part): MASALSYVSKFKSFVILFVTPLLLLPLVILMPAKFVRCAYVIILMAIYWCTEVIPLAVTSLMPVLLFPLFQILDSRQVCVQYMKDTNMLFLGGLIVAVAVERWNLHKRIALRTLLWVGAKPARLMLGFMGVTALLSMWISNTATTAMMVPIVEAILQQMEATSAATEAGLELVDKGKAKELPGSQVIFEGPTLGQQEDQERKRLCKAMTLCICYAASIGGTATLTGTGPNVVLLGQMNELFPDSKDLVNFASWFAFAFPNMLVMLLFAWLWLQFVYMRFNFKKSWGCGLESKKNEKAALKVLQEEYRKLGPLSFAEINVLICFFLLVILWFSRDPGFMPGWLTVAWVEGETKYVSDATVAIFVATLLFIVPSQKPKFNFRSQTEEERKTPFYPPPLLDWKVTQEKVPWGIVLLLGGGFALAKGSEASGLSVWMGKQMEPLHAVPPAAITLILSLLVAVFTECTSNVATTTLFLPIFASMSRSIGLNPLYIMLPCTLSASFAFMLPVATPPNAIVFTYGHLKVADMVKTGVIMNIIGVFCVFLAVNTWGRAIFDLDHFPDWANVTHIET

SMILES | IC50
O=C(NCc1ccccc1F)C1CCN(S(=O)(=O)c2ccc(CO)cc2)CC1 [Example 100, N-[(2-fluorophenyl)methyl]-1-[4-(hydroxymethyl)benzenesulfonyl]piperidine-4-carboxamide] | > 20 µM
CC(=O)c1cccc(S(=O)(=O)N2CCC(C(=O)NCc3ccccc3F)CC2)c1 [Example 106, 1-(3-acetylbenzenesulfonyl)-N-[(2-fluorophenyl)methyl]piperidine-4-carboxamide] | 11.1 µM
O=C(NCc1ccccn1)C1CCN(S(=O)(=O)c2c(Cl)cccc2Cl)CC1 [Example 63, 1-(2,6-dichlorobenzenesulfonyl)-N-[(pyridin-2-yl)methyl]piperidine-4-carboxamide] | > 20 µM
O=C(NCc1ccccc1N1CCOCC1)C1CCN(S(=O)(=O)/C=C/c2ccccc2)CC1 [Example 40, N-{[2-(morpholin-4-yl)phenyl]methyl}-1-[(E)-2-phenylethenesulfonyl]piperidine-4-carboxamide] | > 20 µM
COc1ccc(S(=O)(=O)N2CCC(C(=O)NCc3ccccn3)CC2)c(OC)c1 [Example 61, 1-(2,4-dimethoxybenzenesulfonyl)-N-[(pyridin-2-yl)methyl]piperidine-4-carboxamide] | > 20 µM
O=C(NCc1ccccc1C(F)(F)F)C1CCN(S(=O)(=O)/C=C/c2ccccc2)CC1 [Example 11, 1-[(E)-2-phenylethenesulfonyl]-N-{[2-(trifluoromethyl)phenyl]methyl}piperidine-4-carboxamide] | > 20 µM
COC(=O)c1cccc(S(=O)(=O)N2CCC(C(=O)NCc3ccccc3F)CC2)c1 [Example 88, methyl 3-[(4-{[(2-fluorophenyl)methyl]carbamoyl}piperidin-1-yl)sulfonyl]benzoate] | > 20 µM
O=C(NCc1ccccn1)C1CCN(S(=O)(=O)c2ccc(-c3ccccc3)cc2)CC1 [Example 68, 1-{[1,1′-biphenyl]-4-sulfonyl}-N-[(pyridin-2-yl)methyl]pipendine-4-carboxamide] | 19.7 µM
CN(Cc1ccccn1)C(=O)C1CCN(S(=O)(=O)c2cc(Cl)cc(Cl)c2)CC1 [Example 128, 1-(3,5-dichlorobenzenesulfonyl)-N-methyl-N-[(pyridin-2-yl)methyl]piperidine-4-carboxamide] | > 20 µM
O=C(O)c1cccc(CNC(=O)C2CCN(S(=O)(=O)c3cc(Cl)cc(Cl)c3)CC2)c1 [Example 119, 3-({[1-(3,5-dichlorobenzenesulfonyl)piperidin-4-yl]formamido}methyl)benzoic acid] | > 20 µM
O=C(NCc1ccc(F)cc1)C1CCN(S(=O)(=O)/C=C/c2ccccc2)CC1 [Example 56, N-[(4-fluorophenyl)methyl]-1-[(E)-2-phenylethenesulfonyl]piperidine-4-carboxamide] | > 20 µM
CC(=O)Nc1ccc(S(=O)(=O)N2CCC(C(=O)NCc3ccccc3F)CC2)cc1 [Example 20, 1-(4-acetamidobenzenesulfonyl)-N-[(2-fluorophenyl)methyl]piperidine-4-carboxamide] | > 20 µM
O=C(O)c1ccc(S(=O)(=O)N2CCC(C(=O)NCc3ccccc3F)CC2)cc1 [Example 91, 4-[(4-{[(2-fluorophenyl)methyl]carbamoyl}piperidin-1-yl)sulfonyl]benzoic acid] | > 20 µM
CS(=O)(=O)c1ccccc1CNC(=O)C1CCN(S(=O)(=O)/C=C/c2ccccc2)CC1 [Example 18, N-[(2-methanesulfonylphenyl)methyl]-1-[(E)-2-phenylethenesulfonyl]piperidine-4-carboxamide] | > 20 µM
C/C(=N\O)c1cccc(S(=O)(=O)N2CCC(C(=O)NCc3ccccc3F)CC2)c1 [Example 108, N-[(2-fluorophenyl)methyl]-1-{3-[(1E)-1-(hydroxyimino)ethyl]benzenesulfonyl}piperidine-4-carboxamide] | 20.4 µM
CN(C)c1ccc(S(=O)(=O)N2CCC(C(=O)NCc3ccccc3F)CC2)cc1 [Example 65, 1-[4-(dimethylamino)benzenesulfonyl]-N-[(2-fluorophenyl)methyl]piperidine-4-carboxamide] | > 20 µM
CC(C)(C)c1ccc(S(=O)(=O)N2CC(C(=O)NCc3ccccn3)C2)cc1 [Example 51, 1-(4-tert-butylbenzenesulfonyl)-N-[(pyridin-2-yl)methyl]azetidine-3-carboxamide] | 14.4 µM
O=C(NCc1ccc(CO)cc1)C1CCN(S(=O)(=O)c2ccc(C(F)(F)F)cc2)CC1 [Example 104, N-([4-(hydroxymethyl)phenyl]methyl)-1-[4-(trifluoromethyl)benzenesulfonyl]piperidine-4-carboxamide] | > 20 µM
NC(=O)c1ccc(S(=O)(=O)N2CCC(C(=O)NCc3ccccc3F)CC2)cc1 [Example 77, 1-(4-carbamoylbenzenesulfonyl)-N-[(2-fluorophenyl)methyl]pipendine-4-carboxamide] | > 20 µM
N#Cc1ccccc1CNC(=O)C1CCN(S(=O)(=O)/C=C/c2ccccc2)CC1 [Example 53, N-[(2-cyanophenyl)methyl]-1-[(E)-2-phenylethenesulfonyl]piperidine-4-carboxamide] | 15.9 µM
Cc1cc(S(=O)(=O)N2CCC(C(=O)NCc3ccccn3)CC2)ccc1Cl [Example 121, 1-(4-chloro-3-methylbenzenesulfonyl)-N-[(pyridin-2-yl)methyl]piperidine-4-carboxamide] | 18.8 µM
O=C(NCc1ccccc1F)C1CCN(S(=O)(=O)c2ccc(CN3CCCC3)cc2)CC1 [Example 105, N-[(2-fluorophenyl)methyl]-1-{4-[(pyrrolidin-1-yl)methyl]benzenesulfonyl}piperidine-4-carboxamide] | > 20 µM
Cc1ccc(S(=O)(=O)N2CCC(C(=O)NCc3ccccn3)CC2)cc1Cl [Example 122, 1-(3-chloro-4-methylbenzenesulfonyl)-N-[(pyridin-2-yl)methyl]piperidine-4-carboxamide] | 18.8 µM
O=C(NCc1ccccc1F)C1CCN(S(=O)(=O)c2ccc([N+](=O)[O-])cc2)CC1 [Example 17, N-[(2-fluorophenyl)methyl]-1-(4-nitrobenzenesulfonyl)piperidine-4-carboxamide] | > 20 µM
CC(C)(C)c1ccccc1S(=O)(=O)N1CCC(C(=O)NCc2ccccc2F)CC1 [Example 42, 1-(2-tert-butylbenzenesulfonyl)-N-[(2-fluorophenyl)methyl]piperidine-4-carboxamide] | > 20 µM
O=C(NCc1ccccc1F)C1CN(S(=O)(=O)c2ccc(C(F)(F)F)cc2)C1 [Example 52, N-[(2-fluorophenyl)methyl]-1-[4-(trifluoromethyl)benzenesulfonyl]azetidine-3-carboxamide] | > 20 µM
CCCNC(C)c1cccc(S(=O)(=O)N2CCC(C(=O)NCc3ccccc3F)CC2)c1 (centres unmarked) [Example 109, N-[(2-fluorophenyl)methyl]-1-{3-[1-(propylamino)ethyl]benzenesulfonyl}piperidine-4-carboxamide] | > 20 µM
CNC(C)c1cccc(S(=O)(=O)N2CCC(C(=O)NCc3ccccc3F)CC2)c1 (centres unmarked) [Example 110, N-[(2-fluorophenyl)methyl]-1-{3-[1-(methylamino)ethyl]benzenesulfonyl}piperidine-4-carboxamide] | > 20 µM
O=C(NCc1ccccc1F)C1CCN(S(=O)(=O)c2ccc(F)cc2)CC1 [Example 45, 1-(4-fluorobenzenesulfonyl)-N-[(2-fluorophenyl)methyl]piperidine-4-carboxamide] | 11.8 µM
